Counter-ions that a name gives are not always drawn. Like-named read-outs stand apart in the source and are kept apart here.
What was measured:
[1] = molecular target: T1, HO-2 (rat brain) (Rattus norvegicus, UniProt P23711); assay: HO enzymatic activity in rat brain microsomal fraction (CO formed from methemalbumin, gas chromatography); assay type: biochemical
T1 construct: brain microsomes were used as a source of HO-2; from tissue; host or cells: brain microsomal fraction of adult male Sprague-Dawley rats
T1 sequence (P23711 1-315): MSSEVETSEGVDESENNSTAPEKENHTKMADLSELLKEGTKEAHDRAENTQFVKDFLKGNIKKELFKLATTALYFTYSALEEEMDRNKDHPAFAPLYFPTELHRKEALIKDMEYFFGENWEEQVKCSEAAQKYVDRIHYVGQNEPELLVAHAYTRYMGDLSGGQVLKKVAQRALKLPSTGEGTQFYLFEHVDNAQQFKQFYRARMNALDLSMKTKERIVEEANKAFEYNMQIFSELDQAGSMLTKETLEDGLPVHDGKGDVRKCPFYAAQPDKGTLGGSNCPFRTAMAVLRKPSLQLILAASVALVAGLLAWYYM
Experimental: (§1) Incubations for HO activity analysis were done under conditions for which the rate of CO formation (pmol CO×min^−1×mg protein^−1) was linear with respect to time and microsomal protein concentration. Briefly, reaction mixtures (150 μL) consisting of 100 mM phosphate buffer (pH 7.4), 50 μM methemalbumin, and 1 mg/mL protein were pre-incubated with the inhibitors at final concentrations ranging from 0.1-100 μM for 10 minutes at 37° C. Reactions were initiated by adding NADPH at a final concentration of 1 mM and incubations were performed for an additional 15 minutes at 37° C.
(§2) Incubations for HO activity analysis were done under conditions for which the rate of CO formation (pmol CO/mg protein/minute) was linear with respect to time and microsomal protein concentration. Briefly, reaction mixtures (150 μL) consisting of 100 mM phosphate buffer (pH 7.4), 50 μM methemalbumin and 1 mg/mL protein were pre-incubated with the vehicle (ethanol or water in which the inhibitors were dissolved), or inhibitors at final concentrations ranging from 0.1-1000 μM for 10 minutes at 37° C. Reactions were initiated by adding β-NADPH at a final concentration of 1 mM and incubations were carried out for an additional 15 minutes at 37° C. Reactions were stopped by instantly freezing the reaction mixture on pulverized dry ice and CO formation was measured by gas chromatography using a TA 3000R Process Gas Analyzer (Trace Analytical/Ametek, Newark, Del., USA).
(§3) The values on the abscissa represent the decimal logarithm of the inhibitor's concentration (in μM), whereas the values of the activity on the ordinate are expressed as a percentage of the control experiments without inhibitor.
(§4) The IC50 values for the replicate experiments were employed to generate the reported standard deviation value.

[2] = molecular target: T2, HO-1 (rat spleen) (Rattus norvegicus, UniProt P06762); assay: HO enzymatic activity in rat spleen microsomal fraction (CO formed from methemalbumin, gas chromatography); assay type: biochemical
T2 construct: Spleen microsomes were used as a source of HO-1; from tissue; host or cells: spleen microsomal fraction of adult male Sprague-Dawley rats
T2 sequence (P06762 1-289): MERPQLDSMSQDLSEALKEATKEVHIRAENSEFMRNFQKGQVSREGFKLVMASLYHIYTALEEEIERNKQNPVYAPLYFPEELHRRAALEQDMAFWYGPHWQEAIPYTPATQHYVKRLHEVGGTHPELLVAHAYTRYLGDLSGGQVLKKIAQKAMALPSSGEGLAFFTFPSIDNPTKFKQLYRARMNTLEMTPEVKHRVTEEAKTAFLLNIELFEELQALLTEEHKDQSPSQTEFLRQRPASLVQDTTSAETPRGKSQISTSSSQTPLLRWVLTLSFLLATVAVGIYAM
Experimental: as §1, §2, §3, §4

[3] = rat brain microsomes, average ± standard deviation of replicate experiments, read-out: IC50 HO-2 (rat brain)/μM
[4] = rat spleen microsomes, average ± standard deviation of replicate experiments, read-out: IC50 HO-1 (rat spleen)/μM
[5] = rat brain microsomes, average ± standard deviation of replicate experiments
[6] = rat spleen microsomes, average ± standard deviation of replicate experiments

| SMILES | IC50 [1, 3] | IC50 [2, 4] | further results |
| --- | --- | --- | --- |
| Brc1ccc(CNCc2cccnc2)cc1 | > 100 µM | > 100 µM | – |
| c1ccc(CNCCCn2ccnc2)cc1 | > 100 µM | > 100 µM | – |
| c1ccc2[nH]c(NC3CCNCC3)nc2c1 | > 100 µM | > 100 µM | – |
| CCOC(=O)N1CCC(Nc2nc3ccccc3[nH]2)CC1 | > 100 µM | > 100 µM | – |
| CCOC(=O)N1CCC(Nc2nc3ccccc3n2Cc2ccc(F)cc2)CC1 | > 100 µM | > 100 µM | – |
| c1cn(C2C3CC4CC(C3)CC2C4)cn1 (stereo not shown) | > 100 µM | > 100 µM | – |
| O=C(Cn1ccnc1)c1cccs1 | > 100 µM | > 100 µM | – |
| COc1ccc(CCN2CCC(Nc3nc4ccccc4[nH]3)CC2)cc1 | – | – | IC50 [1]: > 100 µM; IC50 [2]: > 100 µM |
| COc1ccc(CCN2CCC(Nc3nc4ccccc4n3Cc3ccccc3)CC2)cc1 | 60 ± 18 µM | > 100 µM | – |
| COc1ccc(CCN2CCC(Nc3nc4cc(C)c(C)cc4n3Cc3ccc(F)cc3)CC2)cc1 | 91 ± 45 µM | > 100 µM | – |
| NCC(=O)c1ccc(Br)cc1 | – | – | IC50 [1]: > 100 µM; IC50 [2]: > 100 µM |
| COc1ccc(CCN2CCC(Nc3nc4cc(Cl)c(Cl)cc4n3Cc3ccc(F)cc3)CC2)cc1 | > 100 µM | > 100 µM | – |
| O=C(/C(=N/O)n1ccnc1)c1ccc(Cl)cc1 | 103 ± 41 µM | 103 ± 2 µM | – |
| Clc1ccc(/C(Cn2ccnc2)=N\Nc2ccccc2)cc1 | > 100 µM | > 100 µM | – |
| [N-]=[N+]=NCC(=O)c1ccc(Br)cc1 | > 100 µM | > 100 µM | – |
| O=C(Cn1cnnc1)c1ccc(Cl)cc1 | > 100 µM | > 100 µM | – |
| Cc1nccn1CC(=O)CCc1ccc(Cl)cc1.Cl | – | – | IC50 HO-2 (rat brain)/μM [1, 5]: INACTIVE; IC50 HO-1 (rat spleen)/μM [2, 6]: INACTIVE |
| Cc1nccn1CC1(CCc2ccc(Cl)cc2)OCCO1.Cl | – | – | IC50 HO-2 (rat brain)/μM [1, 5]: INACTIVE; IC50 HO-1 (rat spleen)/μM [2, 6]: INACTIVE |
| Fc1ccc(-c2ccno2)cc1 | > 100 µM | > 100 µM | – |
| O=C(Cn1cncn1)c1ccc2c(c1)OCCO2 | > 100 µM | 18 ± 4 µM | – |
| c1ccc2[nH]c(CN3CCCC3)nc2c1 | > 100 µM | > 100 µM | – |
| OC(CCc1ccccc1)Cn1cnc(-c2ccccc2)c1-c1ccccc1 (racemic) [(±)-1-(4,5-diphenyl-imidazol-1-yl)-4-phenyl-butan-2-ol] | > 100 µM | > 100 µM | – |
| OC(CCc1ccc(Br)cc1)Cn1ccnc1 (racemic) [(±)-4-(4-bromophenyl)-1-(1H-imidazol-1-yl)butan-2-ol hydrochloride] | – | 0.14 ± 0.06 µM | – |
| Clc1ccc(CC[C@@]2(Cn3ccnc3)OCC(COc3ccc(-c4ccccc4)cc3)O2)cc1 (stereo in doubt) [(2R,4S)-1-{4-(biphenyl-4-yloxymethyl)-2-[2-(4-chloro-phenyl)-ethyl]-[1,3]dioxolan-2-ylmethyl}-1H-imidazole hydrochloride] | – | 2 ± 1 µM | – |
| O=C(Cn1ccnc1)c1ccc(Cl)c(Cl)c1 [1-(3,4-Dichloro-phenyl)-2-imidazol-1-yl-ethanone] | – | 1.24 ± 0.07 µM | – |
| O=C(Cn1ccnc1)C12CC3CC(CC(C3)C1)C2 [1-(adamantan-1-yl)-2-imidazol-1-yl-ethanone hydrochloride] | – | 7 ± 1 µM | – |

| SMILES | IC50 [1, 3] | IC50 [2, 4] | further results |
| --- | --- | --- | --- |
| Brc1ccc(C2(Cn3cncn3)OCCO2)cc1 [1-[2-(4-bromo-phenyl)-[1,3]dioxolan-2-ylmethyl]-1H-[1,2,4]triazole] | > 100 µM | – | – |
| COc1ccc(C(=O)Cn2ccnc2)cc1 [2-Imidazol-1-yl-1-(4-methoxy-phenyl)-ethanone hydrochloride] | – | 39 ± 13 µM | – |
| CC(C)(C(=O)c1ccccc1)n1ccnc1 [2-Imidazol-1-yl-2-methyl-1-phenyl-propan-1-one] | > 100 µM | – | – |
| Fc1ccc(CCC2(Cn3ccnc3)OCCO2)cc1 [2-[2-(4-fluorophenyl)ethyl]-2-[(1H-imidazol-1-yl)methyl]-1,3-dioxolane hydrochloride] | > 100 µM | – | – |
| Ic1ccc(CCC2(Cn3ccnc3)OCCO2)cc1 [2-[2-(4-iodophenyl)ethyl]-2-[(1H-imidazol-1-yl)methyl]-1,3-dioxolane hydrochloride] | > 100 µM | – | – |
| O=C(Cn1ccnc1)c1cccc2ccccc12 [2-imidazol-1-yl-1-naphthalen-1-yl-ethanone hydrochloride] | – | 2.2 ± 0.1 µM | – |
| COC(=O)c1cncn1CC(=O)CCc1ccccc1 [3-(2-Oxo-4-phenyl-butyl)-3H-imidazole-4-carboxylic acid methyl ester] | – | 69 ± 19 µM | – |
| O=C(CCc1ccc(Br)cc1)Cn1ccnc1 [4-(4-bromophenyl)-1-(1H-imidazol-1-yl)butan-2-one hydrochloride] | – | 1.7 ± 0.7 µM | – |
| O=C(CCc1ccc(Br)cc1)Cn1cncn1 [4-(4-bromophenyl)-1-[1,2,4]triazol-1-yl-butan-2-one hydrochloride] | – | 0.39 ± 0.02 µM | – |
| CC(=O)CCc1ccc(Br)cc1 [4-(4-bromophenyl)butan-2-one] | – | > 100 µM | – |
| O=C(CCc1ccc(Cl)cc1)Cn1ccnc1 [4-(4-chlorophenyl)-1-(1H-imidazol-1-yl)butan-2-one hydrochloride] | – | 4.7 ± 0.5 µM | – |
| OC(CCc1ccc(F)cc1)Cn1ccnc1 (stereo not shown) [4-(4-fluorophenyl)-1-(1H-imidazol-1-yl)butan-2-ol hydrochloride] | – | 1.4 ± 1.1 µM | – |
| O=C(CCc1ccc(F)cc1)Cn1ccnc1 [4-(4-fluorophenyl)-1-(1H-imidazol-1-yl)butan-2-one hydrochloride] | – | 2.7 ± 0.9 µM | – |
| O=C(CCc1ccccc1)Cn1cnnn1 [4-Phenyl-1-tetrazol-1-yl-butan-2-one hydrochloride] | 30 ± 4 µM | – | – |
| O=C(CCc1ccccc1)Cn1ccnn1 [4-phenyl-1-(1H-[1,2,3]triazol-1-yl)butan-2-one] | > 100 µM | – | – |
| O=C(CCc1ccccc1)Cn1nccn1 [4-phenyl-1-[1,2,3]triazol-2-yl-butan-2-one] | > 100 µM | – | – |
| O=C(CCc1ccccc1)Cn1cccn1 [4-phenyl-1-pyrazol-1-yl-butan-2-one hydrochloride] | > 100 µM | – | – |
| O=C(/C=C/c1ccccc1)CCn1ccnc1 [5-(1H-Imidazol-1-yl)-1-phenyl-pent-1-en-3-one hydrochloride] | – | 22.6 ± 0.8 µM | – |
| Nc1ccccc1SC[C@H]1CO[C@@](CCc2ccc(Cl)cc2)(Cn2ccnc2)O1 [(2R,4R)-2-[2-(4-chlorophenyl)ethyl]-2-[(1H-imidazol-1-yl)methyl]-4-[{(2-aminophenyl)thio}meth-yl]-1,3-dioxolane dihydrochloride] | > 100 µM | – | – |
| Nc1cccc(SC[C@H]2CO[C@@](CCc3ccc(Cl)cc3)(Cn3ccnc3)O2)c1 [(2R,4R)-2-[2-(4-chlorophenyl)ethyl]-2-[(1H-imidazol-1-yl)methyl]-4-[{(3-aminophenyl)thio}meth-yl]-1,3-dioxolane dihydrochloride] | – | – | IC50 [1]: > 100 µM |
| Nc1ccc(SC[C@H]2CO[C@@](CCc3ccc(Cl)cc3)(Cn3ccnc3)O2)cc1 [(2R,4R)-2-[2-(4-chlorophenyl)ethyl]-2-[(1H-imidazol-1-yl)methyl]-4-[{(4-aminophenyl)thio}meth-yl]-1,3-dioxolane dihydrochloride] | – | – | IC50 [1]: > 100 µM |
| Nc1ccccc1SC[C@@H]1CO[C@](CCc2ccc(Cl)cc2)(Cn2ccnc2)O1 [(2S,4S)-2-[2-(4-chlorophenyl)ethyl]-2-[(1H-imidazol-1-yl)methyl]-4-[{(2-aminophenyl)thio}meth-yl]-1,3-dioxolane dihydrochloride] | – | 5 ± 0.3 µM | – |
| Nc1ccc(SC[C@@H]2CO[C@](CCc3ccc(Cl)cc3)(Cn3ccnc3)O2)cc1 [(2S,4S)-2-[2-(4-chlorophenyl)ethyl]-2-[(1H-imidazol-1-yl)methyl]-4-[{(4-aminophenyl)thio}meth-yl]-1,3-dioxolane dihydrochloride] | – | – | IC50 [2]: 5 ± 2 µM |
| COc1ccc(CCN2CCC(Nc3nc4ccccc4n3Cc3ccc(F)cc3)CC2)cc1 [Astemizole, reference compound] | 30 ± 5 µM | – | – |
| OC(Cn1cncn1)(Cn1cncn1)c1ccc(F)cc1F [Fluconazole, reference compound] | – | 80 ± 6 µM | – |
